From patent US12320793B2, “Analysis method of 3-methyl-1-phenyl-2-pyrazolin-5-one active pharmaceutical ingredient, treatment for amyotrophic lateral sclerosis, inhibition of progression of amyotrophic lateral sclerosis, and method of producing medicament containing 3-methyl-1-phenyl-2-pyrazolin-5-one active pharmaceutical …” (MITSUBISHI TANABE PHARMA CORPORATION, priority 2018, dated 2025)
“Also recorded” adds a separate entry of the source.

Key:
Assay type in all cases: physicochemical
[1] = Solubility of edaravone active pharmaceutical ingredient (EDVP) in liquids for dissolution
Description: The following liquids for dissolution (a) to (f) were used to prepare sample solutions, and the dissolution states of the edaravone active pharmaceutical ingredient in those solutions were investigated. Then, a liquid for dissolution that enabled to dissolve the edaravone active pharmaceutical ingredient was used to prepare a solution of phenylhydrazine, and the solution was measured using HPLC to check the peak shape of phenylhydrazine.
• (a) 0.1 mol/L hydrochloric acid test liquid • (b) 0.1 mol/L hydrochloric acid/acetonitrile (8:2) mixture • (c) 0.1 mol/L hydrochloric acid/acetonitrile (6:4) mixture • (d) 0.1 mol/L hydrochloric acid/acetonitrile (4:6) mixture • (e) 0.1 mol/L hydrochloric acid/acetonitrile (2:8) mixture • (f) 1 mol/L hydrochloric acid/acetonitrile (6:4) mixture Preparation of Sample Solutions
The edaravone active pharmaceutical ingredient weighed to about 0.10 g was dissolved in liquids for dissolution (a) to (f), and the solutions were adjusted exactly to 10 mLs to provide sample solutions.
Sample solutions were prepared with the following three liquids for dissolution. • 1. 0.1 mol/L hydrochloric acid/methanol (7:3) mixture • 2. 0.1 mol/L hydrochloric acid/methanol (6:4) mixture • 3. […]

[2] = as above; remark: listed apart in the source
[3] = Decomposition during storage of phenylhydrazine hydrochloride versus phenylhydrazine as standard substance (Test Example 1); details: compared with phenylhydrazine
[4] = Stability in solutions of 0.1 mol/L hydrochloric acid/methanol (5:5) mixture by HPLC (Example 3); details: 0.1 mol/L hydrochloric acid/methanol (5:5) compared with hydrochloric acid/acetonitrile (7:3) of Example 1
Excerpt: The stability of phenylhydrazine and/or 3-methyl-1-phenyl-2-pyrazolin-5-one in a solution was investigated provided that an organic solvent in a liquid for dissolution was changed from acetonitrile to methanol.
In accordance with the conditions of Example 1 other than the liquids for dissolution, the stability of phenylhydrazine and/or 3-methyl-1-phenyl-2-pyrazolin-5-one in the solutions was investigated.
Therefore, 0.1 mol/L hydrochloric acid/methanol (5:5) mixture was used to prepare the addition sample solution (edaravone active pharmaceutical ingredient: 0.10111 g, phenylhydrazine: 5 μL), the standard solution (phenylhydrazine hydrochloride: 13.154 mg), and the sample solution (edaravone active pharmaceutical ingredient: 0.10275 g), and the stability of the solutions was investigated.
The results of the stability study of phenylhydrazine in the solution of 0.1 mol/L hydrochloric acid/methanol (5:5) mixture are shown in Table 7 and FIG. 7.

Compound: CC1=NN(c2ccccc2)C(=O)C1 [EDVP, 3-methyl-1-phenyl-2-pyrazolin-5-one]
- solubility of EDVP ([1]; (a) 0.1 mol/L hydrochloric acid test liquid, about 0.10 g to 10 mL): insoluble
- solubility of EDVP ([1]; (b) 0.1 mol/L hydrochloric acid/acetonitrile (8:2) mixture, about 0.10 g to 10 mL): insoluble
- solubility of EDVP ([1]; (c) 0.1 mol/L hydrochloric acid/acetonitrile (6:4) mixture, about 0.10 g to 10 mL): soluble
- solubility of EDVP ([1]; (d) 0.1 mol/L hydrochloric acid/acetonitrile (4:6) mixture, about 0.10 g to 10 mL): soluble
- solubility of EDVP ([1]; (e) 0.1 mol/L hydrochloric acid/acetonitrile (2:8) mixture, about 0.10 g to 10 mL): soluble
- solubility of EDVP ([1]; (f) 1 mol/L hydrochloric acid/acetonitrile (6:4) mixture, about 0.10 g to 10 mL): soluble
- solubility of EDVP ([1]; liquid for dissolution 3: 0.1 mol/L hydrochloric acid/methanol (5:5) mixture): soluble
- solubility of EDVP ([2]; (g) 0.1 mol/L hydrochloric acid/acetonitrile (7:3) mixture, listed as edaravone active pharmaceutical ingredient): soluble; also recorded: dissolve completely

Compound: Cl.NNc1ccccc1 [phenylhydrazine hydrochloride]
- decomposition during storage [3]: less likely to decompose during storage

Compound: NNc1ccccc1 [phenylhydrazine]
- decomposition of phenylhydrazine in the solution [4]: tended to be faster decomposed
- dissolution of phenylhydrazine ([2]; 0.1 mol/L hydrochloric acid/acetonitrile mixture (volume ratio 7:3)): dissolve completely
